Data as given in ChEMBL document CHEMBL3232931 (J Med Chem, 2014).
Activity calls are given as the source filed them. No cut-off for these calls is given here.

Assays:
BL21-DE3 [1] = assay: Inhibition of SARS coronavirus papain-like protease (amino acids 1541 to 1855) expressed in Escherichia coli BL21 (DE3) cells assessed as decrease in AMC release using Z-RLRGG-AMC as substrate by serum shift assay based multimode plate reader analysis in presence of 5 to 20% human serum albumin; conditions: Severe acute respiratory syndrome-related coronavirus
Caspase-3 (Homo sapiens) = biological target: T1, Caspase-3 (Homo sapiens) (UniProt P42574); assay: Inhibition of human caspase-3 using fluorogenic peptide as substrate at 31 uM
T1 sequence (whole entry): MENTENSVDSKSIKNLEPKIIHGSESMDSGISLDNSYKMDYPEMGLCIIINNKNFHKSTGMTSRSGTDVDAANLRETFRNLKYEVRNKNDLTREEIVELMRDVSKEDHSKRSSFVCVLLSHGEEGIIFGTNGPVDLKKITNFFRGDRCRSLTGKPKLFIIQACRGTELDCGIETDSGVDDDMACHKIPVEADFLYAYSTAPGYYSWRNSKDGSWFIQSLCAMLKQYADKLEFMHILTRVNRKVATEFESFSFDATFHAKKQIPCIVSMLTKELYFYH

[2] = biological target: Ubiquitin carboxyl-terminal hydrolase isozyme L1 (Homo sapiens) (UniProt P09936); assay: Inhibition of human UCHL1 at 31 uM
Caspase-3 = biological target: T2, Caspase-3 (Homo sapiens, UniProt P42574); assay: Inhibition of human caspase-3 using fluorogenic peptide as substrate
T2 sequence (P42574 whole entry): T1 sequence (whole entry)

[3] = biological target: T3, Ubiquitin carboxyl-terminal hydrolase 2 (Homo sapiens, UniProt O75604); assay: Inhibition of human USP2 using Ub-rhodamine 110 as substrate
T3 sequence (O75604 whole entry): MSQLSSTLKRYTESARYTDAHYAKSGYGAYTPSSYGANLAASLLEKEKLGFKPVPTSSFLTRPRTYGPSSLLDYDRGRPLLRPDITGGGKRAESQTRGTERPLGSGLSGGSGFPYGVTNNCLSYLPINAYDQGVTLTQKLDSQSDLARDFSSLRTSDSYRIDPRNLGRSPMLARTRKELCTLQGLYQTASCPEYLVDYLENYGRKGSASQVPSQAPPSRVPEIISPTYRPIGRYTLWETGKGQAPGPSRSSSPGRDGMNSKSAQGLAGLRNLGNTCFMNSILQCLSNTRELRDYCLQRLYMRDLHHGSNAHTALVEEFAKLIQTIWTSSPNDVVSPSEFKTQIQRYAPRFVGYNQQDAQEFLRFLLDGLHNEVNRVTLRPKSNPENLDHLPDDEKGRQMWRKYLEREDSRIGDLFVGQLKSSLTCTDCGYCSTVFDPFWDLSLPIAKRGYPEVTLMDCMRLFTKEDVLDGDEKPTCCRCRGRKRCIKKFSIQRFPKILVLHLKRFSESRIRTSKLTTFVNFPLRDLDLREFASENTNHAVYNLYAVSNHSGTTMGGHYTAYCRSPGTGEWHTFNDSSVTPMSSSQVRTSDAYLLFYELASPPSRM

[4] = biological target: Ubiquitin carboxyl-terminal hydrolase 7 (Homo sapiens, UniProt Q93009); assay: Inhibition of human USP7 using Ub-rhodamine 110 as substrate
[5] = biological target: T4, Ubiquitin carboxyl-terminal hydrolase 21 (Homo sapiens) (UniProt Q9UK80); assay: Inhibition of human USP21 using Ub-rhodamine 110 as substrate at 31 uM
T4 sequence (whole entry): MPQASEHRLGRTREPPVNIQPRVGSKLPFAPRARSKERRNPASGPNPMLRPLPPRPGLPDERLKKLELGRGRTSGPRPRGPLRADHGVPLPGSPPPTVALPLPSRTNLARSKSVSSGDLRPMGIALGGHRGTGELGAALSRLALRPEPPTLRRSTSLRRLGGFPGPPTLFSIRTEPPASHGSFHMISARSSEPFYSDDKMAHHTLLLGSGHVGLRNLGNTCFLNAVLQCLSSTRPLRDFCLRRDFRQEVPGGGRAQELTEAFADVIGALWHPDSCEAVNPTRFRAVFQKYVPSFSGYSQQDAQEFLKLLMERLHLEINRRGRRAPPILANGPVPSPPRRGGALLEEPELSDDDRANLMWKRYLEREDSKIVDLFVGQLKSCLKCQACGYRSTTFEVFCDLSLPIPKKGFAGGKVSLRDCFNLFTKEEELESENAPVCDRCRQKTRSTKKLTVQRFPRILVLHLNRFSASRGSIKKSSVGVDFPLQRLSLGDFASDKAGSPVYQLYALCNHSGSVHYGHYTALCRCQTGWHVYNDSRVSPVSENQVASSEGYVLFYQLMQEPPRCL

[6] = (§1) Inhibition of SARS coronavirus papain-like protease (amino acids 1541 to 1855) expressed in Escherichia coli BL21 (DE3) cells assessed as decrease in AMC release using Z-RLRGG-AMC as substrate by multimode plate reader analysis; set-up: species or system Severe acute respiratory syndrome-related coronavirus
[7] = biological target: T5, Cathepsin K (Homo sapiens) (UniProt P43235); assay: Inhibition of human cathepsin K using fluorogenic peptide as substrate at 31 uM
T5 sequence (whole entry): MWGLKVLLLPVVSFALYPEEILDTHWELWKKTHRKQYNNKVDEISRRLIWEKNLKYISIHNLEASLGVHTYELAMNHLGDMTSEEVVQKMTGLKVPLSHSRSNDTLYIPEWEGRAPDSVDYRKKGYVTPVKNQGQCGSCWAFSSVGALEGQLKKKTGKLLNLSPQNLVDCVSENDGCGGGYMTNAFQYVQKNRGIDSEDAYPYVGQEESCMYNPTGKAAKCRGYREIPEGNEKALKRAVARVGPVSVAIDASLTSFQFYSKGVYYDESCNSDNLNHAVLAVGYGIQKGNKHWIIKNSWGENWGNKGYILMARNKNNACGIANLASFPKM

[8] = biological target: Ubiquitin carboxyl-terminal hydrolase 20 (Homo sapiens, UniProt Q9Y2K6); assay: Inhibition of human USP20 using Ub-rhodamine 110 as substrate at 31 uM
HEK293 = assay: Cytotoxicity against human HEK293 cells assessed as cell viability after 48 hrs by Cell Titer-Glo luminescent assay; format: cell-based; conditions: hek293, 48 h
[9] = biological target: T6, Ubiquitin carboxyl-terminal hydrolase 21 (Homo sapiens, UniProt Q9UK80); assay: Inhibition of human USP21 using Ub-rhodamine 110 as substrate
T6 sequence (Q9UK80 whole entry): T4 sequence (whole entry)

Cathepsin K = biological target: T7, Cathepsin K (Homo sapiens, UniProt P43235); assay: Inhibition of human cathepsin K using fluorogenic peptide as substrate
T7 sequence (P43235 whole entry): T5 sequence (whole entry)

[10] = biological target: Replicase polyprotein 1a (Human coronavirus NL63) (UniProt P0C6U6); assay: Inhibition of human coronavirus NL63 PLP2 (amino acids 1565 to 1894) expressed in Escherichia coli BL21 (DE3) cells assessed as reduction of AMC release using Z-RLRGG-AMC as substrate at 100 uM by multimode plate reader analysis
[11] = Metabolic stability in mouse liver microsomes assessed as parent compound remaining at 1 uM after 15 mins; format: ADME; conditions: read-out: Stability
BL21-DE3 [12] = assay: as §1; conditions: Severe acute respiratory syndrome-related coronavirus
[13] = biological target: Replicase polyprotein 1a (Human coronavirus NL63) (UniProt P0C6U6); assay: (§2) Inhibition of human coronavirus NL63 PLP2 (amino acids 1565 to 1894) expressed in Escherichia coli BL21 (DE3) cells assessed as reduction of AMC release using Z-RLRGG-AMC as substrate by multimode plate reader analysis
Target sequence in this assay (P0C6U6 899-2462 limits assumed): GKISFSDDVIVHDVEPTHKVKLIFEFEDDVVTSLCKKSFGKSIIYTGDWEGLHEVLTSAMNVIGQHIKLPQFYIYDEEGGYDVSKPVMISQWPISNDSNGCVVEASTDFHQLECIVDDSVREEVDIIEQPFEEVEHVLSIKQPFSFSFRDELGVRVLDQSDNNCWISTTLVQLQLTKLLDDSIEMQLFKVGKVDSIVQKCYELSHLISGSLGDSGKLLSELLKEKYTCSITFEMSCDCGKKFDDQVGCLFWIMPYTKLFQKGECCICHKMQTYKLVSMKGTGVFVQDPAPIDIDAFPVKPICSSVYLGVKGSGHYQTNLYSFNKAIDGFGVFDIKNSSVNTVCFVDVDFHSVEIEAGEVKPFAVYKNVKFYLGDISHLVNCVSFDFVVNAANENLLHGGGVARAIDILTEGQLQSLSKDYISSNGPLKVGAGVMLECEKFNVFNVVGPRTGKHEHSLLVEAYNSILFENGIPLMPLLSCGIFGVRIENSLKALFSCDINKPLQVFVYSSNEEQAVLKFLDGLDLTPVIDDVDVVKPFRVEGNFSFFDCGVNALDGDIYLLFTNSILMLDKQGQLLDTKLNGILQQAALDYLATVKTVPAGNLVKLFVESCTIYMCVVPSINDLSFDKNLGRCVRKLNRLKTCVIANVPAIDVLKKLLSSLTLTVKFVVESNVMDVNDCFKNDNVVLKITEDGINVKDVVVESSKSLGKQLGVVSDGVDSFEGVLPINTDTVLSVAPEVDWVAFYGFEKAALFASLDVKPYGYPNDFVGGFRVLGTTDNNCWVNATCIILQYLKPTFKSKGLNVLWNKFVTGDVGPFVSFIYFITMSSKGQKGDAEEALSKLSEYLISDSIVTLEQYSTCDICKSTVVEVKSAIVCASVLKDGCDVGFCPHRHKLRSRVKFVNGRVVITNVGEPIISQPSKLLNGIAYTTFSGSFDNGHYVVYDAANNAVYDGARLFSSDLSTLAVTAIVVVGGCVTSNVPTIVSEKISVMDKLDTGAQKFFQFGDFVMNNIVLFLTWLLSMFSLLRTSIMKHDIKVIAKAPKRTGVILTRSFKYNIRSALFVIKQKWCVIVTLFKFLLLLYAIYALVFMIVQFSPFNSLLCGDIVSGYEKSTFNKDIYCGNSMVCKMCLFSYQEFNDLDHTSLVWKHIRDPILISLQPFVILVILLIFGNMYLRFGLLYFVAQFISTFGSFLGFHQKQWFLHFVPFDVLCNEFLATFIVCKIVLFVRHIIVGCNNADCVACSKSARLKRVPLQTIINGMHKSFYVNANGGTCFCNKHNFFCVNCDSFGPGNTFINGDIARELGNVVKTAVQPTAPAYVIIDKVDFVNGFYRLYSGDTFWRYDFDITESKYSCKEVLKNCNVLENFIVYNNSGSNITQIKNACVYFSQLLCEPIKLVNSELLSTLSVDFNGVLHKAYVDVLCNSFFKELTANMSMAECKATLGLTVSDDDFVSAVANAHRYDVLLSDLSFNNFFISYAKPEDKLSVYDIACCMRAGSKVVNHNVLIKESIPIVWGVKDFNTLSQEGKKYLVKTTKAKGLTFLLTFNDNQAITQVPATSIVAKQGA

Replicase polyprotein 1a = Replicase polyprotein 1a (Human coronavirus NL63, UniProt P0C6U6); assay: as §2

Chain of Ubiquitin carboxyl-terminal hydrolase 7 (Q93009 whole entry): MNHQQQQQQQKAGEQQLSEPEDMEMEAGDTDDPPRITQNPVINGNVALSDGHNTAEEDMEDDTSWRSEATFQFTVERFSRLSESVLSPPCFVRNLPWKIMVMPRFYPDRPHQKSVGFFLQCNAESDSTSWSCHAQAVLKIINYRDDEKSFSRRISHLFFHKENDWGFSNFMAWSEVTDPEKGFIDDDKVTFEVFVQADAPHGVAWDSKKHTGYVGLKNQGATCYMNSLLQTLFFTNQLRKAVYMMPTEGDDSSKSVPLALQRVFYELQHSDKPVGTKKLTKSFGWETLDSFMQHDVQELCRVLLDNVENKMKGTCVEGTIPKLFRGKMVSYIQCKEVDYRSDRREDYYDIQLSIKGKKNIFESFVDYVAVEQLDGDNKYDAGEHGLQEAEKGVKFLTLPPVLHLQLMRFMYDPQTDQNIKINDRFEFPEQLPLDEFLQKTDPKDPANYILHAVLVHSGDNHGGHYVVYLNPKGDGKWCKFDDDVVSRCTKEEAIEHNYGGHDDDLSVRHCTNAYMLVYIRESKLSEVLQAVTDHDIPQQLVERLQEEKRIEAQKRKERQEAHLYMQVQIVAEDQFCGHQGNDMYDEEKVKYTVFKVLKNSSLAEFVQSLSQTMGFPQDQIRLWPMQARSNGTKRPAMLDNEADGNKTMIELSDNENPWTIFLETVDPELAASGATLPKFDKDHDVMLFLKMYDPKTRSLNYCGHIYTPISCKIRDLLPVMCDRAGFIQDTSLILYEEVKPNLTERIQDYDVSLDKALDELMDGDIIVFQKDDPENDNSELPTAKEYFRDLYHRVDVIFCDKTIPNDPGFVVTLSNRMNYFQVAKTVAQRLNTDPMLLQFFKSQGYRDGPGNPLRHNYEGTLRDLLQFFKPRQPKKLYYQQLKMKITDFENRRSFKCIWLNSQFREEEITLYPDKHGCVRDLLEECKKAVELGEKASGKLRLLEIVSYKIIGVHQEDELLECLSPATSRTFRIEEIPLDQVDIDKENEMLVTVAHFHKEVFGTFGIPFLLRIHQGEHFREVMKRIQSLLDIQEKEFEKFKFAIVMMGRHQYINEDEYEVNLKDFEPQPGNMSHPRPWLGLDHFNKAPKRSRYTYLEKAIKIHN
Chain of Ubiquitin carboxyl-terminal hydrolase 20 (Q9Y2K6 whole entry): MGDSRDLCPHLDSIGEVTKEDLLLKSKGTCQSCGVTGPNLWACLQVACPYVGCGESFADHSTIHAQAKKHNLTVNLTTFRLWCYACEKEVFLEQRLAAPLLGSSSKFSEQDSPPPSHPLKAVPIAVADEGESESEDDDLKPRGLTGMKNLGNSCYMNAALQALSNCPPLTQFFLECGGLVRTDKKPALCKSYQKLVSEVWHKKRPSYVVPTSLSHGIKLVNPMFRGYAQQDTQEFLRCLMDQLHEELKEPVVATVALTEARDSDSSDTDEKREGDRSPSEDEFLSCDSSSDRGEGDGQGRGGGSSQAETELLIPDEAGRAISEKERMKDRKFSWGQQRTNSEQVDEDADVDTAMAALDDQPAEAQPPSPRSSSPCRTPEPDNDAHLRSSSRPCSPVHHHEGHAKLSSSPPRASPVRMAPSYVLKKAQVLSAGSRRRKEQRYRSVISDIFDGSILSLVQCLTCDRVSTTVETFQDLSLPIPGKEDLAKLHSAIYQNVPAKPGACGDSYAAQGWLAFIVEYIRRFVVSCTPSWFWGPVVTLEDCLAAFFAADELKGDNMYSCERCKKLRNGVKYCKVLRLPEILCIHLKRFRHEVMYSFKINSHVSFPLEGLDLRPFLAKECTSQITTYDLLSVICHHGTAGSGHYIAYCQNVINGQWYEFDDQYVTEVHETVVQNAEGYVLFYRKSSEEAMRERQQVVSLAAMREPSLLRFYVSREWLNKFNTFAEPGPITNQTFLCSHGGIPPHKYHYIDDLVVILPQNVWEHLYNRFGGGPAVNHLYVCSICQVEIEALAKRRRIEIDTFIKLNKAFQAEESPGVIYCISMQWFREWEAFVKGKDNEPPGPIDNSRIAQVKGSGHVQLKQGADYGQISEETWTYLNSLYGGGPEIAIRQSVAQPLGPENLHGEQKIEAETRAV
Chain of Ubiquitin carboxyl-terminal hydrolase isozyme L1 (Homo sapiens) (P09936 whole entry, looked up): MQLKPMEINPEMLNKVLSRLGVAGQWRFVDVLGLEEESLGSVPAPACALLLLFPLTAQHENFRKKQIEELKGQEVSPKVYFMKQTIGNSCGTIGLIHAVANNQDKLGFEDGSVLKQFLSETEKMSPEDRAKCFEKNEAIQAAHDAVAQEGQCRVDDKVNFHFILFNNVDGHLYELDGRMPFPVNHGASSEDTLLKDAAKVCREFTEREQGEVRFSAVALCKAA

Row | SMILES | inhibition (BL21-DE3 [1]) | inhibition (Caspase-3 (Homo sapiens)) [%] | inhibition [2] [%] | IC50 (Caspase-3) | IC50 [3] | IC50 [4] | inhibition [5] [%] | IC50 [6] [µM] | inhibition [7] [%] | inhibition [8] [%] | CC50 (HEK293) [µM] | IC50 [9] [µM] | IC50 (Cathepsin K) | inhibition [10] [%] | remaining at 0.25 h, 1 µM [11] [%] | IC50 ([3]; read-out: IC50) [µM] | IC50 ([4]; read-out: IC50) [µM] | Imax (BL21-DE3 [12]) [%] | Imax [13] [%] | IC50 (Replicase polyprotein 1a) [µM]
1 | C[C@H](c1cccc2ccccc12)N1CCC(C(=O)NCc2ccc(F)cc2)CC1 | Active | < 10 | < 10 | Not Active | Not Active | Not Active | 15 | 0.49 | < 10 | 10 | 73 | > 31 | Not Active | – | – | – | – | – | – | –
2 | CC(=O)Nc1cccc(CNC(=O)C2CCN([C@H](C)c3cccc4ccccc34)CC2)c1 | Active | < 10 | < 10 | Not Active | – | – | 15 | 0.39 | < 10 | 10 | 68 | > 31 | Not Active | > 30 | 20 | > 100 | > 100 | 100 | 71 | 46
3 | C[C@H](c1cccc2ccccc12)N1CCC(C(=O)NCc2ccc3c(c2)OCO3)CC1 | Active | < 10 | < 10 | Not Active | Not Active | Not Active | 15 | 0.67 | < 10 | < 10 | > 100 | > 31 | Not Active | > 30 | 0.2 | – | – | 99 | 46 | 18
4 | C[C@H](c1cccc2ccccc12)N1CCC(C(=O)NCc2cccc(F)c2)CC1 | Active | < 10 | < 10 | Not Active | Not Active | Not Active | 15 | 0.15 | < 10 | 10 | 73 | > 31 | Not Active | > 30 | 1.2 | – | – | 100 | 57 | 33
